In the NIST ThermoML archive (doi:10.1021/je900279z):

Conditions: Gas, Oscillating disk viscometry

FC(F)CC(F)(F)F [1,1,1,3,3-pentafluoropropane]
Conditions | viscosity [mPa·s]
300.81 K, 136 kPa | 0.01064
300.88 K, 113 kPa | 0.01065
300.93 K, 107 kPa | 0.01066
320.26 K, 145 kPa | 0.01124
320.33 K, 186 kPa | 0.01125
320.53 K, 108 kPa | 0.01127
320.58 K, 254 kPa | 0.01127
338.61 K, 100 kPa | 0.01186
338.61 K, 435 kPa | 0.01186
338.98 K, 307 kPa | 0.01184
339.02 K, 207 kPa | 0.01186
339.15 K, 145 kPa | 0.01186
357.15 K, 592 kPa | 0.01252
357.23 K, 104 kPa | 0.01256
357.23 K, 305 kPa | 0.01253
357.38 K, 159 kPa | 0.01255
357.39 K, 108 kPa | 0.01256
357.4 K, 224 kPa | 0.01254
357.43 K, 403 kPa | 0.01252
357.43 K, 708 kPa | 0.01252
357.52 K, 503 kPa | 0.01252
376.25 K, 164 kPa | 0.01303
376.38 K, 254 kPa | 0.01303
376.39 K, 567 kPa | 0.01306
376.43 K, 1071 kPa | 0.01318
376.46 K, 107 kPa | 0.01304
376.54 K, 348 kPa | 0.01304
376.58 K, 676 kPa | 0.01308
376.61 K, 457 kPa | 0.01305
376.61 K, 945 kPa | 0.01314
376.63 K, 1312 kPa | 0.01339
376.64 K, 797 kPa | 0.0131
395.6 K, 109 kPa | 0.01357
395.66 K, 213 kPa | 0.01355
395.77 K, 311 kPa | 0.01358
395.8 K, 417 kPa | 0.01359
395.81 K, 823 kPa | 0.0137
395.85 K, 512 kPa | 0.01362
395.93 K, 616 kPa | 0.01364
395.93 K, 723 kPa | 0.01366
396 K, 934 kPa | 0.01374
396.02 K, 1280 kPa | 0.01396
396.17 K, 1390 kPa | 0.01408
396.22 K, 1164 kPa | 0.01388
396.24 K, 1044 kPa | 0.01386
396.35 K, 1505 kPa | 0.01416
396.46 K, 1614 kPa | 0.0143

[Ar] [argon]
Conditions | viscosity [mPa·s]
300.11 K, 400 kPa | 0.02271
300.17 K, 103 kPa | 0.02279
300.19 K, 199 kPa | 0.02265
300.25 K, 302 kPa | 0.02265
300.32 K, 832 kPa | 0.02286
300.38 K, 616 kPa | 0.0228
300.49 K, 2082 kPa | 0.02335
300.54 K, 3089 kPa | 0.02347
300.56 K, 4050 kPa | 0.02364
300.58 K, 4503 kPa | 0.02383
300.63 K, 3427 kPa | 0.02343
300.66 K, 2759 kPa | 0.02338
300.68 K, 1446 kPa | 0.02313
300.7 K, 3729 kPa | 0.02351
300.72 K, 2458 kPa | 0.02338
300.76 K, 1775 kPa | 0.02325
300.89 K, 1117 kPa | 0.02293
